# Experimental data published in patent publication US6814988B2, “Process for optimizing milk production” (Novus International, Inc., priority 1997, dated 2004).
# Like-named read-outs stand apart in the source and are kept apart here.
# Experiments:
# [1] = Rumen bypass and gastrointestinal availability of HMB in rumen- and duodenum-cannulated lactating dairy cows (Example 1); conditions: for Chromium Concentration: 3 g Cr into rumen
# Protocol: (§1) The absorption and metabolism of 2-hydroxy-4-[methylthio]butanoic acid sold by Novus International (St. Louis, Mo. under the Alimet® was measured in four lactating dairy cows fitted with rumen and duodenal T-type cannulae (10 cm distal to the pylorus). The cows were offered a basal diet of barley-based concentrate (Table I) and alfalfa hay. The concentrate was fed at a level of 1 kg for every 2.5 kg of milk produced (Table I) and access to alfalfa hay was ad libitum. In addition, cows received 30 g HMB mixed with 2 kg ground corn grain per day for six days to allow for adaptation of the rumen microflora. Cows were then fed 90 g HMB mixed with the ground corn and were administered 600 ml chromium-EDTA (3 g Cr) (Binnerts et al., “Soluble chromium indicator measured by atomic absorption in digestion experiments” Vet. Rec. (1968) page 470) into the rumen via the rumen cannula. The HMB meal was offered to the cows for 20 minutes prior to the morning feeding and any of the remaining meal was placed in the rumen via the rumen cannula.
# (§2) Blood, rumen and duodenal samples were collected at 0, 1, 3, 6, 9, 12 and 24 hours post-HMB-feeding. Blood was collected by jugular veni-puncture into 2×10 ml sterile tubes (Vacutainer Brand SST tubes for serum separation, Bectin Dickenson, Rutherford, N.J.), allowed to stand for 30 minutes in an ice bath and centrifuged at 3000×g to separate the serum from cells. Serum was divided into two fractions. The first fraction was deproteinized by adding an equal volume of acetonitrile and then centrifuging to obtain the supernatant. The deproteinized serum was then frozen (−70° C.) until analysis. A second fraction was not deproteinized but directly frozen (−70° C.). Rumen fluid (100 ml) collected from several sites within the rumen was strained through four layers of cheesecloth and subsampled. The subsample (30 ml) was acidified with 6 M HCl (0.5 ml) and frozen (−40° C.). Duodenal samples collected (100 ml) were also stored frozen (−40° C.). Rumen and duodenal samples were later thawed and centrifuged at 23 000×g, 4° C., for 20 minutes to obtain the clarified supernatant. The clarified rumen and the duodenal samples were then frozen until analysis. Serum was analyzed for methionine and rumen and duodenal samples for HMB. Chromium was measured by atomic absorption spectrophotometry in rumen and duodenal samples that were diluted with an equal volume of a calcium chloride solution to yield samples with approximately 400 ppm Ca^2+ (Williams et al., “The determination of chromic oxide in faeces samples by atomic absorption spectrophotometry” J. Agric. Sci., Vol. 59 (1962) pp. 381-385).
# (§3) The slope of the line from the semilogarithmic plot is equal to the fractional rate constant (K). The rate constants were calculated by linear regression of the natural logarithm of Cr and HMB concentration verses time (Table III). Regression analysis of rumen Cr concentration was performed with data for 1 to 24 hours (excluding data for 0 hour).
# (§4) Regression analysis for duodenal Cr and HMB concentration included the data for 3 to 24 hours and 3 to 12 hours, respectively. Excluding the data for 1 hour simplified the analysis by omitting the delay for the translocation of digesta from the rumen to the duodenum.
# [2] = Lactation study, Alimet in close-up dry period and early lactation diets (Example 2); assay type: in vivo, cows
# Protocol: The diets (Table IV) were formulated to include Alimet® to meet the methionine requirements as determined using existing computer modeling technology (CNCPS and DAIRYLP). The diets were balanced to meet amino acid requirements and included standard feed ingredients used in dairy rations. In the absence of added Alimet®, the control diet was predicted to be first limiting in methionine. The estimated need for methionine was approximately 9 grams per day. Alimet® was added assuming an availability to the ruminant of 20%.
# This study included 10 multiparous and five primiparous cows per treatment, supplemented with Alimet® for two weeks before calving and for 12 weeks of lactation. […] At peak milk yield, Alimet-fed multiparous cows produced 7.9 kg/d more FCM than unsupplemented cows (42.0 vs 34.1 kg/d). The benefits of supplying post ruminal amino acid would appear to be greatest during the close-up dry period and early lactation.
# [3] = female, cow, in vivo
# Protocol: as §1, §2, §3, §4
# [4] = Amount of methionine hydroxy analog bypassing the rumen and available for absorption, summary of experimental evidence; assay type: in vivo, ruminant
# Source text: Everything considered, therefore, the amount of the hydroxy analog of methionine which bypasses the rumen and is available for absorption is between about 40% and about 55%.
# in vivo = conditions: female, cow
# Protocol: as §1, §2, §3, §4
# [5] = duodenal fluid, 3 to 24 hours, cow 124
# [6] = duodenal fluid, 3 to 24 hours, cow 131
# [7] = duodenal fluid, 3 to 24 hours, cow 133
# [8] = duodenal fluid, 3 to 24 hours, cow 138
# [9] = duodenal fluid, 3 to 24 hours, mean of four cows
# [10] = rumen fluid, 1 to 24 hours, cow 24
# [11] = rumen fluid, 1 to 24 hours, cow 131
# [12] = rumen fluid, 1 to 24 hours, cow 133
# [13] = rumen fluid, 1 to 24 hours, cow 138
# [14] = rumen fluid, 1 to 24 hours, mean of four cows
compound,measurement,setting,value
chromium-EDTA,Chromium Concentration,"[1]; duodenal fluid, 0 h, cow 124",1.36 µg/mL
same,Chromium Concentration,"[1]; duodenal fluid, 0 h, cow 131",0.05 µg/mL
same,Chromium Concentration,"[1]; duodenal fluid, 0 h, cow 133",0.05 µg/mL
same,Chromium Concentration,"[1]; duodenal fluid, 0 h, cow 138",0.02 µg/mL
same,"Constant, linear regression of natural logarithm of Cr concentration versus time",[1]; [5],3.0038
same,"K (fractional rate constant), Chromium",[1]; [5],−.0705
same,"Constant, linear regression of natural logarithm of Cr concentration versus time",[1]; [6],3.5284
same,"K (fractional rate constant), Chromium",[1]; [6],−.1201
same,"Constant, linear regression of natural logarithm of Cr concentration versus time",[1]; [7],3.6342
same,"K (fractional rate constant), Chromium",[1]; [7],−.1173
same,"Constant, linear regression of natural logarithm of Cr concentration versus time",[1]; [8],3.7419
same,"K (fractional rate constant), Chromium",[1]; [8],−.1135
same,"Constant, linear regression of natural logarithm of Cr concentration versus time",[1]; [9],3.4771
same,"K (fractional rate constant), Chromium; rate constant for passage of the Cr marker to the duodenum",[1]; [9],−.1053
same,"K (fractional rate constant), Chromium; rate constant for passage of the Cr marker to the duodenum","[1]; duodenal fluid, 3 to 24 hours, mean of four cows, listed as Cr",−0.1053
same,Chromium Concentration,"[1]; duodenal fluid, 1 h, cow 124",11.69 µg/mL
same,Chromium Concentration,"[1]; duodenal fluid, 1 h, cow 131",23.80 µg/mL
same,Chromium Concentration,"[1]; duodenal fluid, 1 h, cow 133",12.14 µg/mL
same,Chromium Concentration,"[1]; duodenal fluid, 1 h, cow 138",17.98 µg/mL
same,Chromium Concentration,"[1]; duodenal fluid, 3 h, cow 124",18.30 µg/mL
same,Chromium Concentration,"[1]; duodenal fluid, 3 h, cow 131",24.55 µg/mL
same,Chromium Concentration,"[1]; duodenal fluid, 3 h, cow 133",25.41 µg/mL
same,Chromium Concentration,"[1]; duodenal fluid, 3 h, cow 138",27.23 µg/mL
same,Chromium Concentration,"[1]; duodenal fluid, 6 h, cow 124",11.99 µg/mL
same,Chromium Concentration,"[1]; duodenal fluid, 6 h, cow 131",17.86 µg/mL
same,Chromium Concentration,"[1]; duodenal fluid, 6 h, cow 133",18.42 µg/mL
same,Chromium Concentration,"[1]; duodenal fluid, 6 h, cow 138",23.24 µg/mL
same,Chromium Concentration,"[1]; duodenal fluid, 9 h, cow 124",11.00 µg/mL
same,Chromium Concentration,"[1]; duodenal fluid, 9 h, cow 131",12.16 µg/mL
same,Chromium Concentration,"[1]; duodenal fluid, 9 h, cow 133",16.36 µg/mL
same,Chromium Concentration,"[1]; duodenal fluid, 9 h, cow 138",19.26 µg/mL
same,Chromium Concentration,"[1]; duodenal fluid, 12 h, cow 124",7.89 µg/mL
same,Chromium Concentration,"[1]; duodenal fluid, 12 h, cow 131",6.39 µg/mL
same,Chromium Concentration,"[1]; duodenal fluid, 12 h, cow 133",7.89 µg/mL
same,Chromium Concentration,"[1]; duodenal fluid, 12 h, cow 138",8.39 µg/mL
same,Chromium Concentration,"[1]; duodenal fluid, 24 h, cow 124",3.88 µg/mL
same,Chromium Concentration,"[1]; duodenal fluid, 24 h, cow 131",2.06 µg/mL
same,Chromium Concentration,"[1]; duodenal fluid, 24 h, cow 133",2.29 µg/mL
same,Chromium Concentration,"[1]; duodenal fluid, 24 h, cow 138",2.85 µg/mL
same,Chromium Concentration,"[1]; rumen fluid, 0 h, cow 124",0.04 µg/mL
same,Chromium Concentration,"[1]; rumen fluid, 0 h, cow 131",0.07 µg/mL
same,Chromium Concentration,"[1]; rumen fluid, 0 h, cow 133",0.01 µg/mL
same,Chromium Concentration,"[1]; rumen fluid, 0 h, cow 138",0.02 µg/mL
same,"Constant, linear regression of natural logarithm of Cr concentration versus time",[1]; [10],3.4702
same,"K (fractional rate constant), Chromium",[1]; [10],−.0940
same,"Constant, linear regression of natural logarithm of Cr concentration versus time",[1]; [11],2.7330
same,"K (fractional rate constant), Chromium",[1]; [11],−.1576
same,"Constant, linear regression of natural logarithm of Cr concentration versus time",[1]; [12],3.7310
same,"K (fractional rate constant), Chromium",[1]; [12],−.1302
same,"Constant, linear regression of natural logarithm of Cr concentration versus time",[1]; [13],3.9905
same,"K (fractional rate constant), Chromium",[1]; [13],−.1411
same,"Constant, linear regression of natural logarithm of Cr concentration versus time",[1]; [14],3.7312
same,"K (fractional rate constant), Chromium; rate of passage of the liquid marker from the rumen",[1]; [14],−.1307
same,"K (fractional rate constant), Chromium; rate of passage of the liquid marker from the rumen","[1]; rumen fluid, 1 to 24 hours, mean of four cows, listed as Cr",−0.1307
same,Chromium Concentration,"[1]; rumen fluid, 1 h, cow 124",31.83 µg/mL
same,Chromium Concentration,"[1]; rumen fluid, 1 h, cow 131",36.27 µg/mL
same,Chromium Concentration,"[1]; rumen fluid, 1 h, cow 133",40.44 µg/mL
same,Chromium Concentration,"[1]; rumen fluid, 1 h, cow 138",45.51 µg/mL
same,Chromium Concentration,"[1]; rumen fluid, 3 h, cow 124",23.77 µg/mL
same,Chromium Concentration,"[1]; rumen fluid, 3 h, cow 131",29.11 µg/mL
same,Chromium Concentration,"[1]; rumen fluid, 3 h, cow 133",34.52 µg/mL
same,Chromium Concentration,"[1]; rumen fluid, 3 h, cow 138",37.05 µg/mL
same,Chromium Concentration,"[1]; rumen fluid, 6 h, cow 124",19.29 µg/mL
same,Chromium Concentration,"[1]; rumen fluid, 6 h, cow 131",18.09 µg/mL
same,Chromium Concentration,"[1]; rumen fluid, 6 h, cow 133",16.62 µg/mL
same,Chromium Concentration,"[1]; rumen fluid, 6 h, cow 138",27.94 µg/mL
same,Chromium Concentration,"[1]; rumen fluid, 9 h, cow 124",12.93 µg/mL
same,Chromium Concentration,"[1]; rumen fluid, 9 h, cow 131",8.89 µg/mL
same,Chromium Concentration,"[1]; rumen fluid, 9 h, cow 133",10.79 µg/mL
same,Chromium Concentration,"[1]; rumen fluid, 9 h, cow 138",13.89 µg/mL
same,Chromium Concentration,"[1]; rumen fluid, 12 h, cow 124",9.16 µg/mL
same,Chromium Concentration,"[1]; rumen fluid, 12 h, cow 131",5.04 µg/mL
same,Chromium Concentration,"[1]; rumen fluid, 12 h, cow 133",7.86 µg/mL
same,Chromium Concentration,"[1]; rumen fluid, 12 h, cow 138",8.28 µg/mL
same,Chromium Concentration,"[1]; rumen fluid, 24 h, cow 124",3.62 µg/mL
same,Chromium Concentration,"[1]; rumen fluid, 24 h, cow 131",1.07 µg/mL
same,Chromium Concentration,"[1]; rumen fluid, 24 h, cow 133",2.08 µg/mL
same,Chromium Concentration,"[1]; rumen fluid, 24 h, cow 138",1.97 µg/mL
"CSCCC(O)C(=O)O (stereo not drawn) [HMB, DL, 2-hydroxy-4-[methylthio]butanoic acid]",more FCM than unsupplemented cows,[2]; multiparous cows at peak milk yield,7.9 kg/day
same,FCM production,"[2]; multiparous cows at peak milk yield, unsupplemented 34.1",42.0 kg/day
same,"milk protein content, higher than unsupplemented cows",[2]; supplemented two weeks before calving and 12 weeks of lactation,not
same,milk fat content,"[2]; supplemented two weeks before calving and 12 weeks of lactation, unsupplemented 3.71%",4.01%
same,fat-corrected content (FCM) production,"[2]; supplemented two weeks before calving and 12 weeks of lactation, unsupplemented 29.2",33.4 kg/day
same,milk production,"[2]; supplemented two weeks before calving and 12 weeks of lactation, unsupplemented 31.3",33.9 kg/day
same,percent of the HMB dose absorbed in the omasum,[3],8.8%
same,percent of the HMB dose bypassing the rumen fermentation,[3],40%
same,percent of the HMB dose that disappeared (was degraded) in the rumen,[3],60%
same,percent of the HMB that passed to the small intestine,[3],31.2%
same,rate constant for microbial degradation of HMB within the rumen,[3],−0.1962
same,time by which rumen and duodenal HMB and serum methionine had returned to pre-dose levels,[3],≤ 12 h
same,time of peak duodenal HMB concentration,[3],3 h
same,time of peak ruminal HMB concentration,[3],1 h
same,time of peak serum methionine concentration,[3],6 h
same,HMB Concentration,[3]; 0 h,<10 µg/mL
same,increase in serum methionine above pre-dose levels at the peak concentration,[3]; 6 h,200%
same,HMB Concentration,[3]; 24 h,<10 µg/mL
same,amount absorbed by the omasum,[4]; additional experimental evidence,about 8.8%
same,amount which by-passes the rumen,"[4]; experimental bypass data and field work with dairy cattle (milk response), molecular basis",at least 40%
same,amount which bypasses the rumen and is available for absorption,"[4]; fed in the absence of a bypass fat, molecular basis, experimental evidence to date",at least 20%
same,bioavailability,in vivo,40%
same,concentration at 0 h,in vivo; HMB Concentration,< 10000 ng/mL
same,concentration at 24 h,in vivo; HMB Concentration,< 10000 ng/mL
same,concentration at 24 h,in vivo; rumen concentration of HMB,< 10000 ng/mL
